Data published in patent publication US12569459B2, “Compositions and methods for treating pulmonary edema or lung inflammation” (priority 2020, dated 2026).

Assays:
[1] = GLP toxicity phase: intratracheal instillation once daily for five days; type: in vivo, Sprague-Dawley rats; conditions: for Body weight: female rats, at terminal euthanasia vs pre-dose
Method: Safety studies are described in Example 3, below. In a safety study conducted in compliance with Good Laboratory Practices (GLPs), 0.3 mL (300 μl) was administered to rats weighing 250-350 grams via intratracheal instillation daily for five consecutive days. […] The calculated dose based on lung weight was about 1.57 μg/g wet lung weight.
This study was conducted using both male and female Sprague-Dawley rats (Envigo, Huntingdon, United Kingdom). Evaluation of the safety of the tracheal route of instillation for liothyronine sodium injection in human clinical trials can be accomplished in this species at appropriate dose levels. Furthermore, responses to thyroid hormone in rats are similar to responses in humans, and the choice of the rat model is based in large part on pharmacologic data from studies of thyroid hormone and associated receptors and physiological responses in rat lung. The University of Minnesota is accredited by the Association for the Assessment and Accreditation of Laboratory Animal Care, International (AAALAC) and registered with the United States Department of Agriculture to conduct research in laboratory animals. Animal studies conformed to NIH guidelines (Guide for the Care and Use of Laboratory Animals. NIH publication No. 86-23. Revised 1985). The protocol was reviewed and approved, as applicable, by the Institutional Animal Care and Use Committee (IACUC) at the University of Minnesota for compliance with regulations prior to study initiation or implementation of amended activities.
Sixty animals (plus two spare animals/sex/group) were anesthetized and dosed via intratracheal instillation of test or control materials for five consecutive days. On the day after the last dose a terminal blood collection was performed for clinical pathology, after which animals were euthanized and a gross examination of all organs was performed by a board-certified veterinary pathologist. Select tissues were collected for histopathology. […] Terminal blood collection was performed at two designated time points per animal up to 24 hours after administration for toxicokinetic evaluation. TK animals were euthanized without further evaluation after the final blood collection. All animals were acclimated for a minimum of seven days prior to the dosing procedure. Animals underwent baseline observations and examinations prior to the initiation of the study, and clinical observations and body weight monitoring were performed throughout the in-life portion of the study. All animals received the same dose volume (0.3 mL) of either test or control materials. This maximum feasible dose (MFD) is constrained by the maximum volume that can be safely and reproducibly (over five days) instilled into lungs of rats weighing 250 g to 350 g, which was determined in preliminary toxicology studies to be 0.3 mL. Actual doses delivered are reported as both μg/kg body weight and μg/gm wet lung weight. The toxicity phase animals were 72-135 days of age at the time of initial dosing. Males weighed between 256.52 g and 307.50 g with a mean±standard deviation of 286.74±11.77 g, and females weighed between 250.46 g and 299.01 g with a mean±standard deviation of 260.64±10.34 g. The TK phase animals were 68-144 days of age at the time of initial dosing. Males weighed between 261.23 g and 316.19 g; females weighed between 250.06 g and 280.32 g.
Test and control materials were drawn into dosing syringes using aseptic technique. Using a 18G needle, 0.5 mL of air was drawn into a 1 cc syringe followed by 0.3 mL (300 μL) of the solutions. Animals were anesthetized with a combination of ketamine, 40 mg/kg to 200 mg/kg, and xylazine, 1 mg/kg to 7 mg/kg intraperitoneally (IP), to effect. The dose was adjusted daily, as needed, based on individual animal response and recovery. Depth of anesthesia was evaluated by toe pinch, and eye lubricant was applied to the eyes. […]

[2] = single oral dose of 50 micrograms; cited from earlier work
[3] = tested on: rat lung mucosa and airspaces; assay: Preliminary studies: intratracheal instillation of liothyronine sodium without pH adjustment; conditions: pH of >10.0 as supplied commercially
Method: Using aseptic technique, vials of liothyronine sodium were opened and the entire contents were transferred into sterile 1.5 mL Eppendorf tubes. 80-90 μL of 1.0 N HCl was added to the tube and gently vortexed, and the pH was measured using pH test strips (pH 4.5 to 10.0, Ricca Chemical Co., Arlington, TX). Additional HCl was titrated in gradually, as needed, until the pH was in the desired range. […] This solution was stored at 4° C. and used for up to 26 hours after pH adjustment procedure.

[4] = tested on: intubated patients with ARDS; assay: Phase I/II trial of instilled T3: safety and clinical course; type: in vivo, human
Text: (§1) Ten milliliters (mls) of reformulated, pH-adjusted commercial intravenous T3 solution (Par Pharmaceutical, Navi Mumbai, India; and XGen Pharmaceuticals DJB, Inc., Horseheads, NY) was instilled directly into the airspaces via a suction catheter in the endotracheal tube of intubated patients with ARDS. […] The study was approved by the Essentia IRB (Duluth, MN) and listed on ClinicalTrials.gov (NCT04115514).
(§2) Subsequent doses were given on days 4, 6, and 7. […] Despite Klebsiella aerogenes positive sputum culture, they were extubated on ventilator day 11. After discharge from the ICU, they had some confusion and delirium.

[5] = Phase I/II trial of instilled T3: serum thyroid hormone levels; type: in vivo, human
Text: as §1, §2

[6] = tested on: HO-1; assay: Western blot of HO-1 protein in RLE-6TN cells under hyperoxia; type: cell-based, rat; conditions: T3 10^−6 M
Method: FIG. 10. HO-1 Upregulation is required for T3-increased RLE-6TN cell survival in hyperoxia. […] The cells were then collected for Western Blot analysis. (B) The cells were incubated in 21% O2 and 5% CO2 for 72 hours in the present of HO-1 inhibitor Tin Protoporphyrin IX(10^−6 M) tinT3 (10^−6 M). […] Cell viability is assessed with trypan blue. The number of viable cells under specific conditions is presented as a percentage of the cell number related to hyperoxia alone. Data are mean±s.d. of three independent experiments with *=P<0.05; **=P<0.01.
At the end of the hyperoxia exposure period, the viable cells were counted by trypan blue dye exclusion.
(§3) The cells were lysed in lysis buffer containing 20 mM Tris HCl (pH 7.5), 150 mM NaCl, 1 mM EDTA, 1 mM EGTA, 1% (vol/vol) Triton X-100 with protease inhibitors (1 mM PMSF, 2 μg/ml pepstatin, and 10 μg/ml each of aprotinin and leupeptin), and phosphatase inhibitors (2.5 mM sodium pyrophosphate, 1 mM β-glycerophosphate, and 1 mM Na3VO4). The lysate was drawn 10 times through a 25-gauge needle on ice for further lysis and then was centrifuged at 13,000 rpm for 15 minutes at 4° C. The supernatant was collected, and the protein concentrations were determined by use of the BCA protein assay kit (Sigma-Aldrich, St. Louis, MO). Immediately after this step, equal amounts of protein were subjected to Western blotting analysis.

[7] = tested on: Akt; assay: Akt phosphorylation in RLE-6TN cells under hyperoxia; type: cell-based, rat; conditions: 24 hours hyperoxia, T3 added for 20 minutes; vs room air control and hyperoxia alone
Method: as §3

[8] = females, 1 day after fifth dose

N[C@@H](Cc1cc(I)c(Oc2ccc(O)c(I)c2)c(I)c1)C(=O)O [T3, triiodothyronine]
Gross pathology at necropsy ([1]; all toxicity phase animals): No evidence of toxicity was observed grossly | Clinical observations ([1]; during the study): No adverse T3 related clinical observations were observed | Treatment-related macroscopic or microscopic findings ([1]; end organs examined): no macroscopic or microscopic findings in any of the end organs examined | Body weight ([1]; toxicity phase): weighed slightly less than their pre-dose weight | Body weight ([1]; toxicity phase, listed as liothyronine sodium): did not regain body weight at the same rate as males or as in control groups | Hematology vs control groups [1, 8]: mildly increased reticulocyte count and degree of polychromasia | Serum chemistry vs control groups [1, 8]: slight statistical difference in the mean albumin concentration | Organ weight of the lungs ([1]; five days intratracheal instillation): no differences in the organ weight of the lungs | Hematology parameters vs control groups ([1]; males, 1 day after fifth dose): no statistical or clinically significant changes | Serum chemistry vs control groups ([1]; males, 1 day after fifth dose): slight difference in the mean globulin level | Deaths after dose administration ([1]; toxicity phase, T3 group, ascribed to colon impaction and instillation procedure): two T3 test animals that died after dose administration | Complications or changes (histopathologic, physiologic, laboratory value assessments) ([1]; ~2.7 μg in 0.3 mL intratracheally daily for five consecutive days): No significant complications or changes were observed | Time of peak serum concentration [2]: 2.5 h | Time of physiologic effect of increased heart rate [2]: five hours | Tolerability of intratracheal instillation [3]: do not tolerate | Follow-up status ([4]; Patient 1, 60 days): normal complete pulmonary function tests (PFTs) and chest radiograph at 60 days | Ventilator day of extubation ([4]; Patient 1, four 50 μg doses from day 3): 11 | Tolerability of instillation ([4]; Patient 2): tolerated each installation without apparent adverse side effects | Follow-up status ([4]; Patient 2, 60-day clinic follow up): asymptomatic with normal lung exam, chest radiograph and PFTs | Ventilator day of extubation ([4]; Patient 2, escalating doses from ventilator day 3): 20 | Oxygenation ([4]; Patient 2, previously deteriorating): stabilized over the four treatment days | Adverse pulmonary or systemic events ascribed to T3 instillation ([4]; Patients 1 and 2): Neither patient had significant adverse pulmonary or systemic events | Vasopressor dose required to maintain mean arterial pressure ([4]; Patients 1 and 2): decreased in temporal association with the T3 instillation | Serum free T3 levels ([5]; Patient 1, four 50-μg daily instilled doses, all days of treatment): 1.9 to 3.4 pg/mL | Serum free T3 levels ([5]; Patient 2, escalating daily instilled doses 5, 10, 25, 50 μg): <1.5 to 2.2 pg/mL | Total cellular HO-1 protein [6]: significantly enhanced total cellular protein of HO-1 | Phosphorylation of Akt at Ser473 [7]: augmented phosphorylation of Akt at Ser473
